Results from paper PMC5218480 (PLoS ONE, 2017).

System: MV-4-11 cells
Assay: Gene expression microarray analysis (Affymetrix PrimeView) and GSEA
Assay type: cell-based, human
Set-up: RFU PODN (11730768_x_at) / Fold change /veh PODN (11730768_x_at) / RFU LINC00158 (11744669_a_at) / Fold change /veh LINC00158 (11744669_a_at) / RFU DUSP10 (11751237_a_at) / Fold change /veh DUSP10 (11751237_a_at) / RFU ID3 (11757404_x_at) / Fold change /veh ID3 (11757404_x_at) / RFU PLEKHG5 (11737974_s_at) / Fold change /veh PLEKHG5 (11737974_s_at) / RFU LRRC4B (11730491_at) / Fold change /veh LRRC4B (11730491_at) / RFU GIMAP4 (11747438_a_at) / Fold change /veh GIMAP4 (11747438_a_at) / RFU KRT8 (11758183_x_at) / Fold change /veh KRT8 (11758183_x_at) / RFU CNN1 (11734310_a_at) / Fold change /veh CNN1 (11734310_a_at) / RFU VPS37D (11726825_at) / Fold change /veh VPS37D (11726825_at) / RFU C10orf10 (11716522_x_at) / Fold change /veh C10orf10 (11716522_x_at) / RFU KIR2DL2 /// KIR2DL4 /// KIR2DL5A /// KIR2DL5B /// KIR2DS1 /// KIR2DS2 /// KIR2DS3 /// KIR2DS4 /// KIR3DL3 /// KIR3DL3 /// KIR3DS1 (11738374_at) / Fold change /veh KIR2DL2 /// KIR2DL4 /// KIR2DL5A /// KIR2DL5B /// KIR2DS1 /// KIR2DS2 /// KIR2DS3 /// KIR2DS4 /// KIR3DL3 /// KIR3DL3 /// KIR3DS1 (11738374_at) / RFU C1QL1 (11718748_at) / Fold change /veh C1QL1 (11718748_at) / RFU TMPRSS4 (11747572_a_at) / Fold change /veh TMPRSS4 (11747572_a_at) / RFU HAMP (11756126_x_at) / Fold change /veh HAMP (11756126_x_at) / RFU RNFT2 (11725882_a_at) / Fold change /veh RNFT2 (11725882_a_at) / RFU NR4A2 (11747474_a_at) / Fold change /veh NR4A2 (11747474_a_at) / RFU ABCC12 (11746883_a_at) / Fold change /veh ABCC12 (11746883_a_at) / RFU TMEM136 (11760407_x_at) / Fold change /veh TMEM136 (11760407_x_at) / RFU CLDN22 /// WWC2 (11732394_at) / Fold change /veh CLDN22 /// WWC2 (11732394_at) / RFU HLA-DPB1 (11760878_x_at) / Fold change /veh HLA-DPB1 (11760878_x_at) / RFU SPINT1 (11716480_a_at) / Fold change /veh SPINT1 (11716480_a_at) / RFU GAP43 (11754022_s_at) / Fold change /veh GAP43 (11754022_s_at) / RFU A4GNT (11735810_at) / Fold change /veh A4GNT (11735810_at) / RFU PRB3 (11715151_x_at) / Fold change /veh PRB3 (11715151_x_at) / RFU TUBB4B (11761932_at) / Fold change /veh TUBB4B (11761932_at) / RFU CAPN14 (11732068_a_at) / Fold change /veh CAPN14 (11732068_a_at) / RFU TMCC2 (11721928_a_at) / Fold change /veh TMCC2 (11721928_a_at) / RFU IRGQ (11745062_a_at) / Fold change /veh IRGQ (11745062_a_at) / RFU FAM174B (11720279_a_at) / Fold change /veh FAM174B (11720279_a_at) / RFU TMPRSS4 (11748680_a_at) / Fold change /veh TMPRSS4 (11748680_a_at) / RFU FAM212B (11763350_a_at) / Fold change /veh FAM212B (11763350_a_at) / RFU PLEKHG5 (11743358_a_at) / Fold change /veh PLEKHG5 (11743358_a_at) / RFU ZSCAN30 (11745921_a_at) / Fold change /veh ZSCAN30 (11745921_a_at) / RFU CMKLR1 (11741424_a_at) / Fold change /veh CMKLR1 (11741424_a_at) / RFU LOC101060620 /// MAPK8IP1 (11723275_at) / Fold change /veh LOC101060620 /// MAPK8IP1 (11723275_at) / RFU SPTSSB (11747773_x_at) / Fold change /veh SPTSSB (11747773_x_at) / RFU PRSS12 (11739890_at) / Fold change /veh PRSS12 (11739890_at) / RFU BIN1 (11741810_x_at) / Fold change /veh BIN1 (11741810_x_at) / RFU WNT11 (11732464_a_at) / Fold change /veh WNT11 (11732464_a_at) / RFU C10orf10 (11716521_a_at) / Fold change /veh C10orf10 (11716521_a_at) / RFU C5orf56 (11738089_at) / Fold change /veh C5orf56 (11738089_at) / RFU CYB561 (11721691_x_at) / Fold change /veh CYB561 (11721691_x_at) / RFU ANKRD19P (11752326_a_at) / Fold change /veh ANKRD19P (11752326_a_at) / RFU OR2T12 /// OR2T33 /// OR2T8 (11738714_s_at) / Fold change /veh OR2T12 /// OR2T33 /// OR2T8 (11738714_s_at) / RFU VCAN (11748164_a_at) / Fold change /veh VCAN (11748164_a_at) / RFU JSRP1 (11732532_at) / Fold change /veh JSRP1 (11732532_at) / RFU KRTAP10-11 (11738290_x_at) / Fold change /veh KRTAP10-11 (11738290_x_at) / RFU MYO3A (11730013_a_at) / Fold change /veh MYO3A (11730013_a_at) / RFU EBF3 (11725865_a_at) / Fold change /veh EBF3 (11725865_a_at) / RFU CAMK2N1 (11719241_x_at) / Fold change /veh CAMK2N1 (11719241_x_at) / RFU C5orf56 (11738088_a_at) / Fold change /veh C5orf56 (11738088_a_at) / RFU OLFML3 (11715873_a_at) / Fold change /veh OLFML3 (11715873_a_at) / RFU LOC100653217 /// NTM (11731650_a_at) / Fold change /veh LOC100653217 /// NTM (11731650_a_at) / RFU MAPK11 (11762145_a_at) / Fold change /veh MAPK11 (11762145_a_at) / RFU FIZ1 (11724087_x_at) / Fold change /veh FIZ1 (11724087_x_at) / RFU OASL (11726364_x_at) / Fold change /veh OASL (11726364_x_at) / RFU SOX15 (11748057_x_at) / Fold change /veh SOX15 (11748057_x_at) / RFU CD79A (11719716_a_at) / Fold change /veh CD79A (11719716_a_at) / RFU HIST1H1D (11736915_at) / Fold change /veh HIST1H1D (11736915_at) / RFU CASKIN2 (11723855_a_at) / Fold change /veh CASKIN2 (11723855_a_at) / RFU LOC730098 (11760151_x_at) / Fold change /veh LOC730098 (11760151_x_at) / RFU OR4N2 (11742367_at) / Fold change /veh OR4N2 (11742367_at) / RFU PRRT2 (11749266_a_at) / Fold change /veh PRRT2 (11749266_a_at) / RFU SNX32 (11753110_a_at) / Fold change /veh SNX32 (11753110_a_at) / RFU CDHR5 (11726645_a_at) / Fold change /veh CDHR5 (11726645_a_at) / RFU RCAN1 (11760418_a_at) / Fold change /veh RCAN1 (11760418_a_at) / RFU FAM167A (11723789_a_at) / Fold change /veh FAM167A (11723789_a_at) / RFU FAM26E (11764081_at) / Fold change /veh FAM26E (11764081_at) / RFU ISYNA1 (11749810_s_at) / Fold change /veh ISYNA1 (11749810_s_at) / RFU ACY1 (11761880_at) / Fold change /veh ACY1 (11761880_at) / RFU 11764098_at / Fold change /veh 11764098_at / RFU SAMD14 (11745864_x_at) / Fold change /veh SAMD14 (11745864_x_at) / RFU NPB (11741838_a_at) / Fold change /veh NPB (11741838_a_at) / RFU TMPRSS6 (11731388_a_at) / Fold change /veh TMPRSS6 (11731388_a_at) / RFU KRTAP10-2 (11738614_at) / Fold change /veh KRTAP10-2 (11738614_at) / RFU ARHGAP8 /// PRR5-ARHGAP8 (11727945_x_at) / Fold change /veh ARHGAP8 /// PRR5-ARHGAP8 (11727945_x_at) / RFU KRTAP5-7 /// NADSYN1 (11734609_at) / Fold change /veh KRTAP5-7 /// NADSYN1 (11734609_at) / RFU RASL12 (11751679_a_at) / Fold change /veh RASL12 (11751679_a_at) / RFU CDKN2B (11736163_a_at) / Fold change /veh CDKN2B (11736163_a_at) / RFU PRF1 (11729649_at) / Fold change /veh PRF1 (11729649_at) / RFU, ZNF638 /// ZNF638-IT1 / Fold change vs veh, ZNF638 /// ZNF638-IT1 / RFU, PANK3 / Fold change vs veh, PANK3 / RFU, SH3YL1 / Fold change vs veh, SH3YL1 / RFU, ZEB2 / Fold change vs veh, ZEB2 / RFU, NRIP1 / Fold change vs veh, NRIP1 / RFU, PTTG1IP / Fold change vs veh, PTTG1IP / RFU, CAPN2 / Fold change vs veh, CAPN2 / RFU, MED14 / Fold change vs veh, MED14 / RFU, SNORA58 / Fold change vs veh, SNORA58 / RFU, C1orf63 / Fold change vs veh, C1orf63 / RFU, LRRFIP1 / Fold change vs veh, LRRFIP1 / RFU, NDUFAF7 / Fold change vs veh, NDUFAF7 / RFU, SLC12A2 / Fold change vs veh, SLC12A2 / RFU, IBTK / Fold change vs veh, IBTK / RFU, ESF1 / Fold change vs veh, ESF1 / Fold change vs veh, TMEM50B / RFU, TAOK1 / Fold change vs veh, TAOK1 / RFU, ACBD3 / Fold change vs veh, ACBD3 / RFU, TMA16 / Fold change vs veh, TMA16 / RFU, RWDD3 / Fold change vs veh, RWDD3 / RFU, BCAT1 / Fold change vs veh, BCAT1 / RFU, EDEM3 / Fold change vs veh, EDEM3 / RFU, TMEM33 / Fold change vs veh, TMEM33 / RFU, WDR75 / Fold change vs veh, WDR75 / RFU, AHCTF1 / Fold change vs veh, AHCTF1 / RFU, TFRC / Fold change vs veh, TFRC / RFU, ZDHHC17 / Fold change vs veh, ZDHHC17 / RFU, NOM1 / Fold change vs veh, NOM1 / RFU, ARL8B / Fold change vs veh, ARL8B / RFU, ZBTB11 / Fold change vs veh, ZBTB11 / RFU, TAMM41 / Fold change vs veh, TAMM41 / RFU, KIAA1704 /// LOC100996395 / Fold change vs veh, KIAA1704 /// LOC100996395 / RFU, ING1 / Fold change vs veh, ING1 / RFU, TRMT61B / Fold change vs veh, TRMT61B / RFU, FUBP3 / Fold change vs veh, FUBP3 / RFU, TP53 / Fold change vs veh, TP53 / RFU, TNKS2 / Fold change vs veh, TNKS2 / RFU, ZFP14 / Fold change vs veh, ZFP14 / RFU, ACTR2 / Fold change vs veh, ACTR2 / RFU, PPP3R1 / Fold change vs veh, PPP3R1 / RFU, PIK3R1 / Fold change vs veh, PIK3R1 / RFU, HNRNPA1 / Fold change vs veh, HNRNPA1 / RFU, RNF170 / Fold change vs veh, RNF170 / RFU, ZNF28 / Fold change vs veh, ZNF28 / RFU, RNGTT / Fold change vs veh, RNGTT / RFU, OGT / Fold change vs veh, OGT / RFU, BRD1 / Fold change vs veh, BRD1 / RFU, MARS / Fold change vs veh, MARS / RFU, ZNF655 / Fold change vs veh, ZNF655 / RFU, FAHD1 / Fold change vs veh, FAHD1 / RFU, BDP1 / Fold change vs veh, BDP1 / RFU, LRRCC1 / Fold change vs veh, LRRCC1 / RFU, ARID1A / Fold change vs veh, ARID1A / RFU, ZNF146 / Fold change vs veh, ZNF146 / RFU, ZNF330 / Fold change vs veh, ZNF330 / RFU, GPN3 / Fold change vs veh, GPN3 / RFU, C9orf123 / Fold change vs veh, C9orf123 / RFU, N4BP2L2 / Fold change vs veh, N4BP2L2 / RFU, ARFIP1 / Fold change vs veh, ARFIP1 / RFU, FAM179B / Fold change vs veh, FAM179B / RFU, BCL10 / Fold change vs veh, BCL10 / RFU, UHRF1BP1L / Fold change vs veh, UHRF1BP1L / RFU, BET1 / Fold change vs veh, BET1 / RFU, CNOT2 / Fold change vs veh, CNOT2 / RFU, ZNF268 / Fold change vs veh, ZNF268 / Fold change vs veh, ZNF507 / RFU, DGCR2 / Fold change vs veh, DGCR2 / RFU, WDSUB1 / Fold change vs veh, WDSUB1 / Fold change vs veh, HSP90B1 /// MIR3652 / RFU, ADSS / Fold change vs veh, ADSS / RFU, GK / Fold change vs veh, GK / RFU, ZNF148 / Fold change vs veh, ZNF148 / RFU, TAF9 / Fold change vs veh, TAF9 / RFU, SLC1A5 / Fold change vs veh, SLC1A5 / RFU, SLMO2 / Fold change vs veh, SLMO2 / RFU, ABCC4 / Fold change vs veh, ABCC4 / RFU, LOC101060439 /// RAP1B / Fold change vs veh, LOC101060439 /// RAP1B / RFU, RFX7 / Fold change vs veh, RFX7 / RFU, GTPBP10 / Fold change vs veh, GTPBP10 / RFU, CNEP1R1 / Fold change vs veh, CNEP1R1 / RFU, BIVM-ERCC5 /// ERCC5 / Fold change vs veh, BIVM-ERCC5 /// ERCC5 / RFU, ILF3 / Fold change vs veh, ILF3 / RFU 11762660_at / Fold change /veh 11762660_at / RFU VCAN (11757783_s_at) / Fold change /veh VCAN (11757783_s_at) / RFU DDX43 (11728927_at) / Fold change /veh DDX43 (11728927_at) / RFU KRT8 (11758188_x_at) / Fold change /veh KRT8 (11758188_x_at) / RFU NKD1 (11759106_at) / Fold change /veh NKD1 (11759106_at) / RFU SRD5A1 (11742802_a_at) / Fold change /veh SRD5A1 (11742802_a_at) / RFU TPSAB1 /// TPSB2 (11721975_s_at) / Fold change /veh TPSAB1 /// TPSB2 (11721975_s_at) / RFU GSTM3 (11746129_a_at) / Fold change /veh GSTM3 (11746129_a_at) / RFU IL23R (11737362_x_at) / Fold change /veh IL23R (11737362_x_at) / RFU TMEM51 (11727254_a_at) / Fold change /veh TMEM51 (11727254_a_at) / RFU PIWIL2 (11732686_x_at) / Fold change /veh PIWIL2 (11732686_x_at) / RFU ORM1 (11744905_x_at) / Fold change /veh ORM1 (11744905_x_at) / RFU CCDC152 (11743942_at) / Fold change /veh CCDC152 (11743942_at) / RFU ECM1 (11717891_a_at) / Fold change /veh ECM1 (11717891_a_at) / RFU IL23R (11748794_a_at) / Fold change /veh IL23R (11748794_a_at) / RFU TNFAIP8L3 (11732012_x_at) / Fold change /veh TNFAIP8L3 (11732012_x_at) / RFU MBOAT4 (11741988_at) / Fold change /veh MBOAT4 (11741988_at) / RFU 11764193_at / Fold change /veh 11764193_at / RFU TMEM53 (11763286_at) / Fold change /veh TMEM53 (11763286_at) / RFU MAGEB2 (11727129_at) / Fold change /veh MAGEB2 (11727129_at) / RFU TMEM200A (11744735_a_at) / Fold change /veh TMEM200A (11744735_a_at) / RFU CCDC152 (11751479_a_at) / Fold change /veh CCDC152 (11751479_a_at) / RFU FAM211A (11726209_a_at) / Fold change /veh FAM211A (11726209_a_at) / RFU RGS16 (11746705_a_at) / Fold change /veh RGS16 (11746705_a_at) / RFU VCAN (11755009_s_at) / Fold change /veh VCAN (11755009_s_at) / RFU RHOB (11743442_s_at) / Fold change /veh RHOB (11743442_s_at) / RFU RGS16 (11720943_a_at) / Fold change /veh RGS16 (11720943_a_at) / RFU RGS16 (11720944_at) / Fold change /veh RGS16 (11720944_at) / RFU, VPS4B / Fold change vs veh, VPS4B / RFU, CREB1 / Fold change vs veh, CREB1 / RFU, DNAJC13 / Fold change vs veh, DNAJC13 / RFU, GNAQ / Fold change vs veh, GNAQ / RFU, CDK5R1 / Fold change vs veh, CDK5R1 / RFU, ZRANB3 / Fold change vs veh, ZRANB3 / RFU, CUL4A / Fold change vs veh, CUL4A / RFU, CCNY / Fold change vs veh, CCNY / RFU, UFL1 / Fold change vs veh, UFL1 / RFU, COG3 / Fold change vs veh, COG3 / RFU, DIAPH2 / Fold change vs veh, DIAPH2 / RFU, SKA2 / Fold change vs veh, SKA2 / RFU, AFF3 / Fold change vs veh, AFF3 / RFU, LMF1 / Fold change vs veh, LMF1 / RFU, IPO11 / Fold change vs veh, IPO11 / RFU, DFFB / Fold change vs veh, DFFB / RFU, FOXP1 / Fold change vs veh, FOXP1 / RFU, CARD8 / Fold change vs veh, CARD8 / RFU, STRN3 / Fold change vs veh, STRN3 / RFU, ADK / Fold change vs veh, ADK / RFU, RASSF2 / Fold change vs veh, RASSF2 / RFU, WIPF1 / Fold change vs veh, WIPF1 / RFU, LARP1B / Fold change vs veh, LARP1B / RFU, RASA1 / Fold change vs veh, RASA1 / RFU, RB1 / Fold change vs veh, RB1 / RFU, PPFIA1 / Fold change vs veh, PPFIA1 / RFU, MAT2A / Fold change vs veh, MAT2A / RFU, CCT5 / Fold change vs veh, CCT5 / RFU, WDR92 / Fold change vs veh, WDR92 / RFU, CUX1 / Fold change vs veh, CUX1 / RFU, TTC7A / Fold change vs veh, TTC7A / RFU, TMEM135 / Fold change vs veh, TMEM135 / RFU, DEPTOR / Fold change vs veh, DEPTOR / RFU, CPM / Fold change vs veh, CPM / RFU, DNAJB6 / Fold change vs veh, DNAJB6 / RFU, CACNA2D3 / Fold change vs veh, CACNA2D3 / RFU, DTX4 / Fold change vs veh, DTX4 / RFU, TFCP2 / Fold change vs veh, TFCP2 / RFU, GMCL1 /// GMCL1P1 / Fold change vs veh, GMCL1 /// GMCL1P1 / RFU, AEBP2 / Fold change vs veh, AEBP2 / RFU, SNHG1 /// SNORD22 /// SNORD25 /// SNORD26 /// SNORD27 /// SNORD28 /// SNORD29 /// SNORD31 / Fold change vs veh, SNHG1 /// SNORD22 /// SNORD25 /// SNORD26 /// SNORD27 /// SNORD28 /// SNORD29 /// SNORD31 / Fold change (Aza/veh), C12orf56 (ProbeSet 11735607_a_at) / Fold change (ACY-1035/veh), C12orf56 (ProbeSet 11735607_a_at) / Fold change (Aza/veh), FGFR1OP (ProbeSet 11751329_s_at) / Fold change (ACY-1035/veh), FGFR1OP (ProbeSet 11751329_s_at) / Fold change (Aza/veh), VPS36 (ProbeSet 11739960_a_at) / Fold change (ACY-1035/veh), VPS36 (ProbeSet 11739960_a_at) / RFU SYPL1 (11715823_x_at) / Fold change /veh SYPL1 (11715823_x_at) / RFU IGFBP7 (11715501_s_at) / Fold change /veh IGFBP7 (11715501_s_at) / RFU REEP3 (11722064_at) / Fold change /veh REEP3 (11722064_at) / RFU IGLL1 (11728026_x_at) / Fold change /veh IGLL1 (11728026_x_at): dose or concentration left out as unconfirmed
Conditions: MV-4-11 cells, 48 hours

Nc1ccc(-c2cccs2)cc1NC(=O)c1ccc2c(c1)cc(C1CC1)n2CCN1CCOCC1 [ACY-1035]
Fold change /veh PRF1 (11729649_at): 1.05
